According to patent US20230322735A1, “AZETIDINYL TRYPTAMINES AND METHODS OF TREATING PSYCHIATRIC DISORDERS” (priority 2020, published 2023):

Test: Chemical stability of the product on storage and analysis
Format: physicochemical
Procedure: Note: The product 2 is unstable and should be stored frozen, protected from light, and under inert gas. If stored properly, stability has been confirmed by qNMR for at least 1 month.
A mixture of 3-(2-(azetidin-1-yl)ethyl)-1H-indol-4-ol (2, 50 mg, 231.18 μmol, 1 eq) and pyridine (23.77 mg, 300.54 μmol, 24.26 μL, 1.3 eq) in DCM (1 mL) was cooled to 0° C. Then acetic anhydride (25.96 mg, 254.30 μmol, 23.82 μL, 1.1 eq) was added dropwise at 0° C. and the resulting mixture was stirred at 25° C. for 1 h. At this time, the solvent was removed and the residue was purified by prep-HPLC (column=Waters Xbridge BEH C18 (100*30 mm, 10 μm); mobile phase=water(NH4HCO3)-ACN, B %=5%-40%; 10 min run time) to provide 3-(2-(azetidin-1-yl)ethyl)-1H-indol-4-yl acetate (4) as a white solid (20 mg, 33% yield). ^1H NMR (400 MHz, DMSO-d6) δ 11.01 (br s, 1H), 7.22 (d, J=8.0 Hz, 1H), 7.11 (d, J=1.6 Hz, 1H), 7.02 (t, J=8.0 Hz, 1H), 6.64 (d, J=7.6 Hz, 1H), 3.09 (t, J=6.8 Hz, 4H), 2.57-2.54 (m, 4H), 2.32 (s, 3H), 1.96-1.90 (m, 2H); LCMS (RT=0.983 min, MS calc.: 258.14, [M+H]+=259.1).

For `Oc1cccc2[nH]cc(CCN3CCC3)c12` [Compound 2, 3-(2-(azetidin-1-yl)ethyl)-1H-indol-4-ol], the “stability of the product (in words)” value (storage) was “unstable” and the “time for which stability was confirmed by qNMR” value (stored frozen, protected from light, under inert gas) was “at least 1 month”.
